Reference: patent US10000483B2, “Bone marrow on X chromosome kinase (BMX) inhibitors and uses thereof” (Dana-Farber Cancer Institute, Inc., priority 2012, dated 2018)

Tests used:
BLK = BLK (Homo sapiens (Human), UniProt P51451); test: Invitrogen Select Screening in vitro kinase assay; format: biochemical
Excerpt: (§1) The in vitro activity of compounds of Formula (I) and (II) in inhibiting BMX and other kinases were obtained using an Invitrogen Select Screening assay as known in the art. The IC50 values determined from this assay are shown below.

TEC = TEC (Homo sapiens (Human), UniProt P42680); test: Invitrogen Select Screening in vitro kinase assay; format: biochemical
TEC, sequence (P42680 whole entry): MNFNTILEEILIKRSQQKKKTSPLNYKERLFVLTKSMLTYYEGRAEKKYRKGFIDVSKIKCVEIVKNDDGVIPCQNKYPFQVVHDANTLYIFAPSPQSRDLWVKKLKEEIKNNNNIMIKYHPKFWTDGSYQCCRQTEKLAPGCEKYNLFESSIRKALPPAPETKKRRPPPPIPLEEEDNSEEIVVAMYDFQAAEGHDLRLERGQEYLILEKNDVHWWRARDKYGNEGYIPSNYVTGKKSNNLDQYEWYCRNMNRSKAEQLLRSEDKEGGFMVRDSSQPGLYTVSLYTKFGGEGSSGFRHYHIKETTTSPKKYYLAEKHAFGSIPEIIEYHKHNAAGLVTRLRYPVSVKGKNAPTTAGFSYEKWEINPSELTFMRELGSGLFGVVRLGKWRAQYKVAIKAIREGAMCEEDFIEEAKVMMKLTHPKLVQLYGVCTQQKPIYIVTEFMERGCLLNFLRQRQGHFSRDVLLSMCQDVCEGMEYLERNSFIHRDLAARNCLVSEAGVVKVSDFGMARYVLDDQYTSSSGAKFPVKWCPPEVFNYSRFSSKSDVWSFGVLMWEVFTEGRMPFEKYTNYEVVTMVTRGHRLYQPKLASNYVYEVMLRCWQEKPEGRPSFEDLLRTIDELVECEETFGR
Excerpt: as §1

mTOR = mTOR (Homo sapiens (Human), UniProt P42345); test: Invitrogen Select Screening in vitro kinase assay; format: biochemical
Excerpt: as §1

mTORC1 = mTORC1 (Homo sapiens (Human), UniProt P42345); test: Invitrogen Select Screening in vitro kinase assay; format: biochemical
JAK3 = JAK3 (Homo sapiens (Human), UniProt P52333); test: DiscoverX binding assay
JAK3, sequence (P52333 whole entry): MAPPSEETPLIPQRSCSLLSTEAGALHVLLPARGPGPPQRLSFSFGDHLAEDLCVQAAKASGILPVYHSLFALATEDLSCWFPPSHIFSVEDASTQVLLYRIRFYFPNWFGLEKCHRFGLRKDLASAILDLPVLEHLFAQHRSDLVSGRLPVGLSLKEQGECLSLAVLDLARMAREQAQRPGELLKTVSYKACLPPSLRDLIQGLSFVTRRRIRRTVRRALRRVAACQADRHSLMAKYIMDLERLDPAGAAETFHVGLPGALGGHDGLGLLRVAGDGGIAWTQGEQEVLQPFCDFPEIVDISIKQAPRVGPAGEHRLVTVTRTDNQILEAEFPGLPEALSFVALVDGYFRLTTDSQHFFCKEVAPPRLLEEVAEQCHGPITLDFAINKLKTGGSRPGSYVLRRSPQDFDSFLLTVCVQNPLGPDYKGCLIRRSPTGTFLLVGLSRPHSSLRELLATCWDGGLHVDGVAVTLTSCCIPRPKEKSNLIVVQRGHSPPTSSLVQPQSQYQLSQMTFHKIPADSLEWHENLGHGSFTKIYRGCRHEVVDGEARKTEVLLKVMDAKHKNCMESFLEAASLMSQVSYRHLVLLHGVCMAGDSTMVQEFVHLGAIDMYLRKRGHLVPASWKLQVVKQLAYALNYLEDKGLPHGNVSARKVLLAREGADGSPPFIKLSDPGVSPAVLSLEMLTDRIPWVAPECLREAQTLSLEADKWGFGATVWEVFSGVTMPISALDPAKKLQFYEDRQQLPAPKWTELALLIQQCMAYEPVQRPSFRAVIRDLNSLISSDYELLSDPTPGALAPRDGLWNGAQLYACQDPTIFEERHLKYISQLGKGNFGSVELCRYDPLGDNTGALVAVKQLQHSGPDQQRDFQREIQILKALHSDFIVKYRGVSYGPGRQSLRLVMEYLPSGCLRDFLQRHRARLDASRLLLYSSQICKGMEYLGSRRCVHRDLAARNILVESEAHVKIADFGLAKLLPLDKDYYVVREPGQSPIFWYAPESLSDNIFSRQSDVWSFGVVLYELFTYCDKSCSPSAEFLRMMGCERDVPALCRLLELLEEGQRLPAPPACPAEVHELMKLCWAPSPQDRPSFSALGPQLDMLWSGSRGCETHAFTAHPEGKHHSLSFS
Excerpt: (§2) Screening hits are identified by measuring the amount of protein captured in test versus control samples by using a quantitative, precise, and ultra-sensitive qPCR method that detects the associated DNA label.

MKNK2 = MKNK2 (Homo sapiens (Human), UniProt Q9HBH9); test: Kinase panel at 1 uM (Table 9); format: binding; settings: read-out: % inhibition at 1 uM, MKNK2
Excerpt: as §2

TAK1 = TAK1 (Homo sapiens (Human), UniProt O43318); test: Kinase panel at 1 uM (Table 9); format: binding; settings: read-out: % inhibition at 1 uM, TAK1
TAK1, sequence (O43318 whole entry): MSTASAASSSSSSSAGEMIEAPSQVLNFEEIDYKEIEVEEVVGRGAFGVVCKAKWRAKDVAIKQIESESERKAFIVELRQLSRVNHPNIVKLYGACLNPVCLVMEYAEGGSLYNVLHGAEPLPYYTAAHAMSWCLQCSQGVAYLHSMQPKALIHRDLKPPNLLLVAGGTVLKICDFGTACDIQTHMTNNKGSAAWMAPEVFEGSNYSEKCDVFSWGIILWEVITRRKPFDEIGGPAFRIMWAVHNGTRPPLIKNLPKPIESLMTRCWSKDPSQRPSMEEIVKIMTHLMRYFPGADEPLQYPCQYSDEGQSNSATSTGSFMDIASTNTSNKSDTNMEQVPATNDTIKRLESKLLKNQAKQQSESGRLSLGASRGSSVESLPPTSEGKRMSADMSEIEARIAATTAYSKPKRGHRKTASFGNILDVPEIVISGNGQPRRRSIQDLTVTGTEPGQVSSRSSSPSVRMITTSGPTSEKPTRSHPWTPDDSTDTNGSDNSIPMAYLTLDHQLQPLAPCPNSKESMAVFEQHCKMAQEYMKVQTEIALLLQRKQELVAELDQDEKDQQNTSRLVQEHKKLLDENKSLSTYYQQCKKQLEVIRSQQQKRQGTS
Excerpt: as §2

YSK4 = YSK4 (Homo sapiens (Human), UniProt Q56UN5); test: Kinase panel at 1 uM (Table 9); format: binding; settings: read-out: % inhibition at 1 uM, YSK4
YSK4, sequence (Q56UN5 whole entry): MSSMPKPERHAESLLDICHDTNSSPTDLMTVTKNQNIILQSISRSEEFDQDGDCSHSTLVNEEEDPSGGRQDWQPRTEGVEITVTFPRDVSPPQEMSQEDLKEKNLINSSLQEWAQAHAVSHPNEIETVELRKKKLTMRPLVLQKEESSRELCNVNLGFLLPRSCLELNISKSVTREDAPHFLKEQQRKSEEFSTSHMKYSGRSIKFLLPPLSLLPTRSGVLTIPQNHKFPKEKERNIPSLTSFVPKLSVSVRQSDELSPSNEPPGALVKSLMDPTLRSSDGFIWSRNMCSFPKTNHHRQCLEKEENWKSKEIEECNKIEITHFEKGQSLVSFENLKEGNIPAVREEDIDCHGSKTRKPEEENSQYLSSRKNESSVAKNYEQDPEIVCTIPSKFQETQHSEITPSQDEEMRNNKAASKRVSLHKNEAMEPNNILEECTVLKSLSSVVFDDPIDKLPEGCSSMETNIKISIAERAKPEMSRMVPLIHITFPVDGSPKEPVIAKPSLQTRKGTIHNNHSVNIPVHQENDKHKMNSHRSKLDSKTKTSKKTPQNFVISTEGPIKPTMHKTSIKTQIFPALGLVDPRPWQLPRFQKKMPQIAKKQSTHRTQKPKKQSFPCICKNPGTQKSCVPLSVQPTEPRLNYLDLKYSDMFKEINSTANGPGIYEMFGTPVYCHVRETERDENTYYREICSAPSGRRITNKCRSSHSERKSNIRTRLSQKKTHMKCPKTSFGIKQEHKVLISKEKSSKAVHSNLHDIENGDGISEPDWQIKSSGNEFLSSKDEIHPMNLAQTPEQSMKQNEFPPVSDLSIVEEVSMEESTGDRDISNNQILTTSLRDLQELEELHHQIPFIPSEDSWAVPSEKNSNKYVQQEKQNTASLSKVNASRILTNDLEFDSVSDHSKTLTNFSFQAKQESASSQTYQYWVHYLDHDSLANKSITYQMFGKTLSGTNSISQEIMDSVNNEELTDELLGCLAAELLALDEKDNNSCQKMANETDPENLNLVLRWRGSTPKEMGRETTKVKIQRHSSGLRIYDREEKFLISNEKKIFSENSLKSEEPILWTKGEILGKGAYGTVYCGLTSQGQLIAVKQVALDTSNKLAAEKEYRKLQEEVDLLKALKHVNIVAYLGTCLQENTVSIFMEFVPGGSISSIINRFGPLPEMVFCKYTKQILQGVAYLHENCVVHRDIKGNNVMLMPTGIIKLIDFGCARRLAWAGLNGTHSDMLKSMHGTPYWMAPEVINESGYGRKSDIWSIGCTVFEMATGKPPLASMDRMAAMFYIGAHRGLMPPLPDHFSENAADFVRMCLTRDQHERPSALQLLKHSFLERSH
Excerpt: as §2

DYRK1B = DYRK1B (Homo sapiens (Human), UniProt Q9Y463); test: Kinase panel at 1 uM (Table 9); format: binding; settings: read-out: % inhibition at 1 uM, DYRK1B
DYRK1B, sequence (Q9Y463 whole entry): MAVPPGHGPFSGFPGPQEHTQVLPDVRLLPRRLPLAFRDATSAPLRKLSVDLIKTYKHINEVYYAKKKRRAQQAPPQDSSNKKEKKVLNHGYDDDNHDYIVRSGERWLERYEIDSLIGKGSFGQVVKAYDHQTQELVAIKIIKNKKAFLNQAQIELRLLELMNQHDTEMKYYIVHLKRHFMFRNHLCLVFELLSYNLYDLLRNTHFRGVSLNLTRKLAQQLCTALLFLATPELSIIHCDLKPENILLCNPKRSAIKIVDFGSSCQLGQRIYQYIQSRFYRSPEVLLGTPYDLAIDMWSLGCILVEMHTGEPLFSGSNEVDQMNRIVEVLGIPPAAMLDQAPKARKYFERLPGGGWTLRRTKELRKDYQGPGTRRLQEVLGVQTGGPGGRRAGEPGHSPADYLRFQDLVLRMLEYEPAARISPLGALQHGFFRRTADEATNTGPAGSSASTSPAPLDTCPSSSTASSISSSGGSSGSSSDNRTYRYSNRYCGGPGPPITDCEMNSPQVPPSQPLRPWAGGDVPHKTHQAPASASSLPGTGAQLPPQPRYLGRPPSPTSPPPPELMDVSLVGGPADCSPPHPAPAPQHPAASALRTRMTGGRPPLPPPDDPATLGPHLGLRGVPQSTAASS
Excerpt: as §2

FLT3(ITD) = test: Kinase panel at 1 uM (Table 9); format: binding
Excerpt: as §2

BCWM.1 cells = test: Cell proliferation analysis for WM and lymphoma cell lines (CellTiter-Glo); format: cell-based; settings: BCWM1; 72 hours
Experimental: (§3) Various cell lines were used including Waldenström's macroglobulinemia (WM) cell lines (BCWM.1, MWCL-1, RPCI-WM1) and B-cell lymphoma cell lines (OCI-Ly3, Ramos, OCI-Ly19). Cells were seeded into 384 well plates with the EL406 Combination Washer Dispenser (BioTek Instruments, Inc.) and inhibitor compounds were injected into the cells culture media with the JANUS Automated Workstation (PerkinElmer Inc.).

MWCL-1 cells = test: as above; format: cell-based; settings: 72 hours
Experimental: as §3

FAK pY576/577 = test: FAK pYpY phosphorylation blot in RV1 cells cotransfected with BMX and FAK; format: cell-based; settings: FIG. 17
RV1 cells = test: Prostate cancer cell apoptosis, cleaved caspase 3; format: cell-based
Excerpt: Caspase-3 positive cells were counted and normalized to total cell number (N=5).

BMX [1] = molecular target: T1, BMX (Homo sapiens (Human), UniProt P51813); test: BMX autophosphorylation in RV-1 cells; format: cell-based
T1 sequence (P51813 whole entry): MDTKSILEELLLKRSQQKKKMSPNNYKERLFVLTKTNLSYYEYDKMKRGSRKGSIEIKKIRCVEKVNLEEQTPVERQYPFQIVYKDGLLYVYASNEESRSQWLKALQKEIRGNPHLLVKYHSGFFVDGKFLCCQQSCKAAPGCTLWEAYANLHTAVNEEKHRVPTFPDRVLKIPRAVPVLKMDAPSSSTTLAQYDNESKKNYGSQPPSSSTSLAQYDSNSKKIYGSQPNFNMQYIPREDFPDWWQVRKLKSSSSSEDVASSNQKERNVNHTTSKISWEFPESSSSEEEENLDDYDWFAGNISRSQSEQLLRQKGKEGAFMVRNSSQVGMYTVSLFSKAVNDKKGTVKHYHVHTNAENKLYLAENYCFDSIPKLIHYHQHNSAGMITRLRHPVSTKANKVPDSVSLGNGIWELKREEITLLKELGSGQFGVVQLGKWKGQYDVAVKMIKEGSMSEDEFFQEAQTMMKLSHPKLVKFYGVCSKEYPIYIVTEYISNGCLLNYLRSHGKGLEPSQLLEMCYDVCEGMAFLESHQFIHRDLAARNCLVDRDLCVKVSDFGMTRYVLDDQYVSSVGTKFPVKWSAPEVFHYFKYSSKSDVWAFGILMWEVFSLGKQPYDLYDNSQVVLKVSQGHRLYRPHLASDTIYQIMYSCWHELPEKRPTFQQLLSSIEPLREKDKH

BMX [2] = molecular target: T1, BMX; test: BMX protein levels in RV-1 cells; format: cell-based; settings: 72 h treatment, 5 μM
Excerpt: Moreover, the depletion could be rescued upon stable overexpression of the C496S mutant BMX.

[3] = tested on: TEL-BMX transformed Ba/F3 cells; test: cells; settings: Mus musculus, BaF3, read-out: GI50, TEL-BMX
[4] = tested on: TEL-JAK2 transformed Ba/F3 cells; test: cells; settings: Mus musculus, BaF3, read-out: GI50, TEL-JAK2
[5] = tested on: TEL-JAK3 transformed Ba/F3 cells; test: cells; settings: Mus musculus, BaF3, read-out: GI50, TEL-JAK3 (+IL-3)
[6] = tested on: TYK2E957D transformed Ba/F3 cells; test: cells; settings: Mus musculus, BaF3, read-out: GI50, TYK2E957D

`C=CC(=O)Nc1cc(-n2c(=O)ccc3cnc4ccc(-c5ccc(NS(C)(=O)=O)cc5)cc4c32)ccc1C` [I-14] was tested, and the IC50 (BLK) was 377 nM, the IC50 (TEC) was 653 nM and the IC50 (mTOR) was 325 nM. For the same molecule, the IC50 (mTORC1) was 7400 nM, the “Percent Control, JAK3” value (JAK3; DiscoverX binding) was 20% and the inhibition at 1 µM (JAK3; read-out: % inhibition at 1 uM, JAK3(JH1domain-catalytic)) was 6.6%. The inhibition at 1 µM (MKNK2) was 100%, the inhibition at 1 µM (TAK1) was 83% and the inhibition at 1 µM (YSK4) was 100%. The inhibition at 1 µM (DYRK1B) was 100%, the “% inhibition at 1 uM, FLT3(ITD)” value (FLT3(ITD)) was 99% and the EC50 (BCWM.1 cells) was 1100 nM. For the same molecule, the EC50 (MWCL-1 cells) was 1390 nM, the “BMX mediated phosphorylation of pYpY site on FAK” value (FAK pY576/577) was “inhibits BMX mediated phosphorylation of pYpY site on FAK” and the “cell numbers and apoptosis by Caspase 3 staining” value (RV1 cells; 5 pM concentration (so in the source)) was “reduced cell numbers and induced apoptosis”. For the same molecule, the “concentration causing apoptosis based on increased cleaved caspase 3” value (RV1 cells; FIG. 18C) was 10 to 20 µM, the “concentration sufficient to inhibit BMX autophosphorylation in RV-1 cells” value (BMX [1]) was at most 1 µM and the “BMX protein levels in RV-1 cells” value (BMX [2]) was “significantly reduced”. For the same molecule, the GI50 [3] was 25 nM, the GI50 [4] was 5830 nM and the GI50 [5] was 7770 nM. For the same molecule, the GI50 [6] was 6090 nM.
